Measured values published in patent US10501421B1, “Substituted benzimidazoles as modulators of Ras signaling” (VANDERBILT UNIVERSITY, priority 2017, dated 2019).
Counter-ions that a name gives are not always drawn. Like-named read-outs stand apart in the source and are kept apart here.

Legend:
Son of Sevenless (SOS) = target: T1, Son of Sevenless (SOS) (Homo sapiens, UniProt Q07889); experiment: Binding to SOS, fluorescence polarization anisotropy (FPA) probe displacement; conditions: displacement of FITC-conjugated probe (Example 285), affinity calculated from IC50
T1 sequence (Q07889 564-1049 limits assumed): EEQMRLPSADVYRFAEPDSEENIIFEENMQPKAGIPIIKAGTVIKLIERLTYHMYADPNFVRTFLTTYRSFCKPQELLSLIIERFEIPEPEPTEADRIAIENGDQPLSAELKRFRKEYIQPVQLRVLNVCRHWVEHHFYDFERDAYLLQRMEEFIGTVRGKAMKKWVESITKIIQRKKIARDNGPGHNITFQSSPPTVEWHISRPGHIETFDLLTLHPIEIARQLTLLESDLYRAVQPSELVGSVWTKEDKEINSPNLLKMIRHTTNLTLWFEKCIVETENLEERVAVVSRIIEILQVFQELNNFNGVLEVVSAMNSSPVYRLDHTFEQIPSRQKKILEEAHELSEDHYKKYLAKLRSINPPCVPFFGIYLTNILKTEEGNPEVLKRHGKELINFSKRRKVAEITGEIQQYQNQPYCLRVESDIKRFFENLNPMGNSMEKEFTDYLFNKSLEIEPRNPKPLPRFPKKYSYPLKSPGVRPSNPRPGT
How it was run: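 A FITC-conjugated probe compound was incubated with SOS in buffer, and its displacement was tracked as a change in fluorescence anisotropy across a test-compound dose range. IC50 came from a four-parameter variable-slope fit, and binding affinity was calculated from it.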

[1] = tested on: H727 lung cancer cell lines (G12V K-Ras mutation); experiment: Inhibition of cancer cell proliferation (CellTiter-Glo); type: cell-based; conditions: Homo sapiens, NCI-H727, 72 h, read-out: Cell proliferation activity (H727 cancer cell line proliferation IC50)
Description: Compounds of the present invention were measured for their ability to kill H727 lung cancer cell lines, which contain a G12V K-Ras mutation. Cell proliferation experiments were conducted in 96-well plates. Cells were plated at 1000 cells/well, incubated overnight, followed by treatment with a dose range of compound for 3 days at 37° C. Cell proliferation was assessed using a CellTiter-Glo assay (Promega) according to the manufacturer's protocol. Data were normalized to DMSO control. IC50 values were determined using a four-parameter dose-response (variable slope) equation. These assays are performed in a manner analogous to the assay disclosed in: Burns, M. C.; Sun, Q.; Daniels, R. N.; Camper, D. V.; Kennedy, J. P.; Phan, J.; Olejniczak, E. O.; Lee, T.; Waterson, A. G.; Rossanese, O. W.; Fesik, S. W. “Approach for targeting Ras with small molecules that activate SOS-mediated nucleotide exchange” Proc. Natl. Acad. Sci. 2014; 11(9): 3401-3406. PMCID: PMC3948241.

[2] = target: Ras GEF SOS (Son of Sevenless) (Homo sapiens, UniProt Q07889); experiment: SOS-mediated nucleotide exchange on Ras (BODIPY-GDP fluorescence); type: biochemical; conditions: SOS-mediated exchange of BODIPY-GDP for GTP on Ras
How it was run: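 Ras loaded with BODIPY-GDP was mixed in buffer with test compound, then GTP and SOS. Fluorescence change from labeled GDP/GTP exchange was followed over time, and rates came from single-exponential fits. EC50 came from a four-parameter fit of mean rate against compound concentration.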

[3] = H727 cells, 3 days treatment, CellTiter-Glo

Sequence of Ras GEF SOS (Son of Sevenless) (P01112 1-166 partner limits assumed, one chain of several): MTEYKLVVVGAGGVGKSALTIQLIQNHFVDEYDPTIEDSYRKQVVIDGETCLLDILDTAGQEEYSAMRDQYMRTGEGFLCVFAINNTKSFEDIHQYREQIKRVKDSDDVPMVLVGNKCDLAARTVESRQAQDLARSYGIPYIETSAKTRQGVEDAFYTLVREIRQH

| IC50 [1, 3] [µM] | Structure (SMILES) | Ki (Son of Sevenless (SOS)) [µM] | IC50 [1] [µM] | EC50 [2] [µM] |
| --- | --- | --- | --- | --- |
| – | C=Cc1cc(Cn2c(N3CCNCC3)nc3cc(C)c(C)cc32)cc(C=C)c1F [Example 46, 1-(4-fluoro-3,5-divinylbenzyl)-5,6-dimethyl-2-(piperazin-1-yl)-1H-benzo[d]imidazole trifluoroacetate] | > 5 | 1 to 5 | 5 to 30 |
| – | CCc1cc(Cn2c(N3CCNCC3)nc3cc(C)c(C)cc32)cc(Cl)c1F [Example 48, 1-(3-chloro-5-ethyl-4-fluorobenzyl)-5,6-dimethyl-2-(piperazin-1-yl)-1H-benzo[d]imidazole trifluoroacetate] | 1 to 5 | 1 to 5 | 1 to 5 |
| – | Cc1ccccc1-c1cccc2c1nc(N1CCNCC1)n2Cc1ccc(F)c(Cl)c1 [Example 79, 1-(3-chloro-4-fluorobenzyl)-2-(piperazin-1-yl)-4-(o-tolyl)-1H-benzo[d]imidazole trifluoroacetate] | – | 5 to 20 | 1 to 5 |
| – | Fc1ccc(Cn2c(N3CCNCC3)nc3c(-c4ccccc4Cl)cccc32)cc1Cl [Example 84, 1-(3-chloro-4-fluorobenzyl)-4-(2-chlorophenyl)-2-(piperazin-1-yl)-1H-benzo[d]imidazole trifluoroacetate] | – | 1 to 5 | 1 to 5 |
| – | Cc1nn(C)c(C)c1-c1cccc2c1nc(N1CCNCC1)n2Cc1ccc(F)c(Cl)c1 [Example 85, 1-(3-chloro-4-fluorobenzyl)-2-(piperazin-1-yl)-4-(1,3,5-trimethyl-1H-pyrazol-4-yl)-1H-benzo[d]imidazole trifluoroacetate] | – | 5 to 20 | 1 to 5 |
| – | Cn1nccc1-c1cccc2c1nc(N1CCNCC1)n2Cc1ccc(F)c(Cl)c1 [Example 86, 1-(3-chloro-4-fluorobenzyl)-4-(1-methyl-1H-pyrazol-5-yl)-2-(piperazin-1-yl)-1H-benzo[d]imidazole trifluoroacetate] | – | 5 to 20 | 1 to 5 |
| 5 to 20 | Fc1ccc(Cn2c(N3CCNCC3)nc3c(-c4ccc(C(F)(F)F)cc4)cccc32)cc1Cl [Example 87, 1-(3-chloro-4-fluorobenzyl)-2-(piperazin-1-yl)-4-(4-(trifluoromethyl)phenyl)-1H-benzo[d]imidazole] | – | – | 5 to 30 |
| 1 to 5 | COc1ccc(-c2cccc3c2nc(N2CCNCC2)n3Cc2ccc(C(F)(F)F)cc2)cc1OC [Example 91, 4-(3,4-dimethoxyphenyl)-2-(piperazin-1-yl)-1-(4-(trifluoromethyl)benzyl)-1H-benzo[d]imidazole] | – | – | 5 to 30 |
| 1 to 5 | Nc1ccc(-c2cccc3c2nc(N2CCNCC2)n3Cc2ccc(C(F)(F)F)cc2)cc1 [Example 92, 4-(2-(piperazin-1-yl)-1-(4-(trifluoromethyl)benzyl)-1H-benzo[d]imidazol-4-yl)aniline] | – | – | 1 to 5 |
| < 1 | CC(C)c1ccccc1-c1cccc2c1nc(N1CCNCC1)n2Cc1ccc(C(F)(F)F)cc1 [Example 95, 4-(2-isopropylphenyl)-2-(piperazin-1-yl)-1-(4-(trifluoromethyl)benzyl)-1H-benzo[d]imidazole] | – | – | 1 to 5 |
| 1 to 5 | Cc1cc(-c2cccc3c2nc(N2CCNCC2)n3Cc2ccc(C(F)(F)F)cc2)nn1C [Example 96, 4-(1,5-dimethyl-1H-pyrazol-3-yl)-2-(piperazin-1-yl)-1-(4-(trifluoromethyl)benzyl)-1H-benzo[d]imidazole] | – | – | 1 to 5 |
| < 1 | CC(C)c1ccccc1-c1cccc2c1nc(N1CCNCC1)n2Cc1cc(F)cc(F)c1 [Example 97, 1-(3,5-difluorobenzyl)-4-(2-isopropylphenyl)-2-(piperazin-1-yl)-1H-benzo[d]imidazole] | – | – | 1 to 5 |
| – | CCNCc1c(C)c(C)cc2c1nc(N1CCNCC1)n2Cc1cc(C)c(F)c(C)c1 [Example 131, N-((1-(4-fluoro-3,5-dimethylbenzyl)-5,6-dimethyl-2-(piperazin-1-yl)-1H-benzo[d]imidazol-4-yl)methyl)ethanamine trifluoroacetate] | – | < 1 | 1 to 5 |
| – | Cc1cc(CNCC(C)C)c2nc(N3CCNCC3)n(Cc3cc(C)c(F)c(C)c3)c2c1 [Example 133, N-((1-(4-fluoro-3,5-dimethylbenzyl)-6-methyl-2-(piperazin-1-yl)-1H-benzo[d]imidazol-4-yl)methyl)-2-methylpropan-1-amine trifluoroacetate] | – | 1 to 5 | 1 to 5 |
| – | Cc1cc2c(nc(N3CCNCC3)n2Cc2cc(C)c(F)c(C)c2)c(CO)c1C [Example 138, (1-(4-fluoro-3,5-dimethylbenzyl)-5,6-dimethyl-2-(piperazin-1-yl)-1H-benzo[d]imidazol-4-yl)methanol trifluoroacetate] | – | 5 to 20 | 1 to 5 |
| – | Cc1cc(Cn2c(N3CCNCC3)nc3c(C4NCCc5c4[nH]c4ccccc54)cc(Cl)cc32)cc(C)c1F (stereo not drawn) [Example 140, 1-(6-chloro-1-(4-fluoro-3,5-dimethylbenzyl)-2-(piperazin-1-yl)-1H-benzo[d]imidazol-4-yl)-2,3,4,9-tetrahydro-1H-pyrido[3,4-b]indole trifluoroacetate] | – | 1 to 5 | 1 to 5 |
| – | C=C[C@H](N)c1cc(Cl)cc2c1nc(N1CCNCC1)n2Cc1cc(C)c(F)c(C)c1 [Example 155, (S)-1-(6-chloro-1-(4-fluoro-3,5-dimethylbenzyl)-2-(piperazin-1-yl)-1H-benzo[d]imidazol-4-yl)prop-2-en-1-amine trifluoroacetate] | – | < 1 | < 1 |
| – | CC[C@H](N)c1cc(Cl)cc2c1nc(N1CCNCC1)n2Cc1cc(C)c(F)c(C)c1 [Example 157, (S)-1-(6-chloro-1-(4-fluoro-3,5-dimethylbenzyl)-2-(piperazin-1-yl)-1H-benzo[d]imidazol-4-yl)propan-1-amine trifluoroacetate] | – | 1 to 5 | < 1 |
| – | CC[C@H](N)c1cc(Cl)cc2c1nc(NCCN)n2Cc1cc(C)c(F)c(C)c1 [Example 158, (S)—N^1-(4-(1-aminopropyl)-6-chloro-1-(4-fluoro-3,5-dimethylbenzyl)-1H-benzo[d]imidazol-2-yl)ethane-1,2-diamine trifluoroacetate] | – | 5 to 20 | 1 to 5 |
| > 20 | Cc1cc(Cn2c(NCCN)nc3c(Cl)nccc32)ccc1F [Example 223, N^1-(4-chloro-1-(4-fluoro-3-methylbenzyl)-1H-imidazo[4,5-c]pyridin-2-yl)ethane-1,2-diamine] | – | – | 5 to 30 |
| 1 to 5 | Cc1cc(Cn2c(N3CCNCC3)nc3ccc(OC(C)C(F)(F)F)nc32)ccc1F (stereo not drawn) [Example 258, 3-(4-fluoro-3-methylbenzyl)-2-(piperazin-1-yl)-5-((1,1,1-trifluoropropan-2-yl)oxy)-3H-imidazo[4,5-b]pyridine] | – | – | 5 to 30 |
| < 1 | Cc1cc(Cn2c(N3CCCC(N)C3)nc3ccc(OC(C)C(F)(F)F)nc32)ccc1F (stereo not drawn) [Example 261, 1-(3-(4-fluoro-3-methylbenzyl)-5-((1,1,1-trifluoroprpan-2-yl)oxy)-3H-imidazo[4,5-b]pyridin-2-yl)piperidin-3-amine] | – | – | 30 to 100 |
| 5 to 20 | Cc1cc(Cn2c(N3CC(CN)C3)nc3ccc(OCCN(C)C)nc32)ccc1F [Example 262, 2-((2-(3-(aminomethyl)azetidin-1-yl)-3-(4-fluoro-3-methylbenzyl)-3H-imidazo[4,5-b]pyridin-5-yl)oxy)-N,N-dimethylethan-1-amine] | – | – | 30 to 100 |
| 5 to 20 | Cc1cc(Cn2c(NCC3CNC3)nc3ccc(OCCN(C)C)nc32)ccc1F [Example 263, N-(azetidin-3-ylmethyl)-5-(2-(dimethylamino)ethoxy)-3-(4-fluoro-3-methylbenzyl)-3H-imidazo[4,5-b]pyridin-2-amine] | – | – | 30 to 100 |
| 1 to 5 | Cc1cc(-c2c(C)c(C)cc3c2nc(N2CCNCC2)n3Cc2ccc(F)c(Cl)c2)n(C)n1 [Example 286, 1-(3-chloro-4-fluorobenzyl)-4-(1,3-dimethyl-1H-pyrazol-5-yl)-5,6-dimethyl-2-(piperazin-1-yl)-1H-benzo[d]imidazole] | – | – | – |
